Paper PMC5218480 (PLoS ONE, 2017)

System: MV-4-11 cells
Test: Gene expression microarray analysis (Affymetrix PrimeView) and GSEA
Assay type: cell-based, human
Parameters: RFU PODN (11730768_x_at) / Fold change /veh PODN (11730768_x_at) / RFU LINC00158 (11744669_a_at) / Fold change /veh LINC00158 (11744669_a_at) / RFU DUSP10 (11751237_a_at) / Fold change /veh DUSP10 (11751237_a_at) / RFU ID3 (11757404_x_at) / Fold change /veh ID3 (11757404_x_at) / RFU PLEKHG5 (11737974_s_at) / Fold change /veh PLEKHG5 (11737974_s_at) / RFU LRRC4B (11730491_at) / Fold change /veh LRRC4B (11730491_at) / RFU GIMAP4 (11747438_a_at) / Fold change /veh GIMAP4 (11747438_a_at) / RFU KRT8 (11758183_x_at) / Fold change /veh KRT8 (11758183_x_at) / RFU CNN1 (11734310_a_at) / Fold change /veh CNN1 (11734310_a_at) / RFU VPS37D (11726825_at) / Fold change /veh VPS37D (11726825_at) / RFU C10orf10 (11716522_x_at) / Fold change /veh C10orf10 (11716522_x_at) / RFU KIR2DL2 /// KIR2DL4 /// KIR2DL5A /// KIR2DL5B /// KIR2DS1 /// KIR2DS2 /// KIR2DS3 /// KIR2DS4 /// KIR3DL3 /// KIR3DL3 /// KIR3DS1 (11738374_at) / Fold change /veh KIR2DL2 /// KIR2DL4 /// KIR2DL5A /// KIR2DL5B /// KIR2DS1 /// KIR2DS2 /// KIR2DS3 /// KIR2DS4 /// KIR3DL3 /// KIR3DL3 /// KIR3DS1 (11738374_at) / RFU C1QL1 (11718748_at) / Fold change /veh C1QL1 (11718748_at) / RFU TMPRSS4 (11747572_a_at) / Fold change /veh TMPRSS4 (11747572_a_at) / RFU HAMP (11756126_x_at) / Fold change /veh HAMP (11756126_x_at) / RFU RNFT2 (11725882_a_at) / Fold change /veh RNFT2 (11725882_a_at) / RFU NR4A2 (11747474_a_at) / Fold change /veh NR4A2 (11747474_a_at) / RFU ABCC12 (11746883_a_at) / Fold change /veh ABCC12 (11746883_a_at) / RFU TMEM136 (11760407_x_at) / Fold change /veh TMEM136 (11760407_x_at) / RFU CLDN22 /// WWC2 (11732394_at) / Fold change /veh CLDN22 /// WWC2 (11732394_at) / RFU HLA-DPB1 (11760878_x_at) / Fold change /veh HLA-DPB1 (11760878_x_at) / RFU SPINT1 (11716480_a_at) / Fold change /veh SPINT1 (11716480_a_at) / RFU GAP43 (11754022_s_at) / Fold change /veh GAP43 (11754022_s_at) / RFU A4GNT (11735810_at) / Fold change /veh A4GNT (11735810_at) / RFU PRB3 (11715151_x_at) / Fold change /veh PRB3 (11715151_x_at) / RFU TUBB4B (11761932_at) / Fold change /veh TUBB4B (11761932_at) / RFU CAPN14 (11732068_a_at) / Fold change /veh CAPN14 (11732068_a_at) / RFU TMCC2 (11721928_a_at) / Fold change /veh TMCC2 (11721928_a_at) / RFU IRGQ (11745062_a_at) / Fold change /veh IRGQ (11745062_a_at) / RFU FAM174B (11720279_a_at) / Fold change /veh FAM174B (11720279_a_at) / RFU TMPRSS4 (11748680_a_at) / Fold change /veh TMPRSS4 (11748680_a_at) / RFU FAM212B (11763350_a_at) / Fold change /veh FAM212B (11763350_a_at) / RFU PLEKHG5 (11743358_a_at) / Fold change /veh PLEKHG5 (11743358_a_at) / RFU ZSCAN30 (11745921_a_at) / Fold change /veh ZSCAN30 (11745921_a_at) / RFU CMKLR1 (11741424_a_at) / Fold change /veh CMKLR1 (11741424_a_at) / RFU LOC101060620 /// MAPK8IP1 (11723275_at) / Fold change /veh LOC101060620 /// MAPK8IP1 (11723275_at) / RFU SPTSSB (11747773_x_at) / Fold change /veh SPTSSB (11747773_x_at) / RFU PRSS12 (11739890_at) / Fold change /veh PRSS12 (11739890_at) / RFU BIN1 (11741810_x_at) / Fold change /veh BIN1 (11741810_x_at) / RFU WNT11 (11732464_a_at) / Fold change /veh WNT11 (11732464_a_at) / RFU C10orf10 (11716521_a_at) / Fold change /veh C10orf10 (11716521_a_at) / RFU C5orf56 (11738089_at) / Fold change /veh C5orf56 (11738089_at) / RFU CYB561 (11721691_x_at) / Fold change /veh CYB561 (11721691_x_at) / RFU ANKRD19P (11752326_a_at) / Fold change /veh ANKRD19P (11752326_a_at) / RFU OR2T12 /// OR2T33 /// OR2T8 (11738714_s_at) / Fold change /veh OR2T12 /// OR2T33 /// OR2T8 (11738714_s_at) / RFU VCAN (11748164_a_at) / Fold change /veh VCAN (11748164_a_at) / RFU JSRP1 (11732532_at) / Fold change /veh JSRP1 (11732532_at) / RFU KRTAP10-11 (11738290_x_at) / Fold change /veh KRTAP10-11 (11738290_x_at) / RFU MYO3A (11730013_a_at) / Fold change /veh MYO3A (11730013_a_at) / RFU EBF3 (11725865_a_at) / Fold change /veh EBF3 (11725865_a_at) / RFU CAMK2N1 (11719241_x_at) / Fold change /veh CAMK2N1 (11719241_x_at) / RFU C5orf56 (11738088_a_at) / Fold change /veh C5orf56 (11738088_a_at) / RFU OLFML3 (11715873_a_at) / Fold change /veh OLFML3 (11715873_a_at) / RFU LOC100653217 /// NTM (11731650_a_at) / Fold change /veh LOC100653217 /// NTM (11731650_a_at) / RFU MAPK11 (11762145_a_at) / Fold change /veh MAPK11 (11762145_a_at) / RFU FIZ1 (11724087_x_at) / Fold change /veh FIZ1 (11724087_x_at) / RFU OASL (11726364_x_at) / Fold change /veh OASL (11726364_x_at) / RFU SOX15 (11748057_x_at) / Fold change /veh SOX15 (11748057_x_at) / RFU CD79A (11719716_a_at) / Fold change /veh CD79A (11719716_a_at) / RFU HIST1H1D (11736915_at) / Fold change /veh HIST1H1D (11736915_at) / RFU CASKIN2 (11723855_a_at) / Fold change /veh CASKIN2 (11723855_a_at) / RFU LOC730098 (11760151_x_at) / Fold change /veh LOC730098 (11760151_x_at) / RFU OR4N2 (11742367_at) / Fold change /veh OR4N2 (11742367_at) / RFU PRRT2 (11749266_a_at) / Fold change /veh PRRT2 (11749266_a_at) / RFU SNX32 (11753110_a_at) / Fold change /veh SNX32 (11753110_a_at) / RFU CDHR5 (11726645_a_at) / Fold change /veh CDHR5 (11726645_a_at) / RFU RCAN1 (11760418_a_at) / Fold change /veh RCAN1 (11760418_a_at) / RFU FAM167A (11723789_a_at) / Fold change /veh FAM167A (11723789_a_at) / RFU FAM26E (11764081_at) / Fold change /veh FAM26E (11764081_at) / RFU ISYNA1 (11749810_s_at) / Fold change /veh ISYNA1 (11749810_s_at) / RFU ACY1 (11761880_at) / Fold change /veh ACY1 (11761880_at) / RFU 11764098_at / Fold change /veh 11764098_at / RFU SAMD14 (11745864_x_at) / Fold change /veh SAMD14 (11745864_x_at) / RFU NPB (11741838_a_at) / Fold change /veh NPB (11741838_a_at) / RFU TMPRSS6 (11731388_a_at) / Fold change /veh TMPRSS6 (11731388_a_at) / RFU KRTAP10-2 (11738614_at) / Fold change /veh KRTAP10-2 (11738614_at) / RFU ARHGAP8 /// PRR5-ARHGAP8 (11727945_x_at) / Fold change /veh ARHGAP8 /// PRR5-ARHGAP8 (11727945_x_at) / RFU KRTAP5-7 /// NADSYN1 (11734609_at) / Fold change /veh KRTAP5-7 /// NADSYN1 (11734609_at) / RFU RASL12 (11751679_a_at) / Fold change /veh RASL12 (11751679_a_at) / RFU CDKN2B (11736163_a_at) / Fold change /veh CDKN2B (11736163_a_at) / RFU PRF1 (11729649_at) / Fold change /veh PRF1 (11729649_at) / RFU, ZNF638 /// ZNF638-IT1 / Fold change vs veh, ZNF638 /// ZNF638-IT1 / RFU, PANK3 / Fold change vs veh, PANK3 / RFU, SH3YL1 / Fold change vs veh, SH3YL1 / RFU, ZEB2 / Fold change vs veh, ZEB2 / RFU, NRIP1 / Fold change vs veh, NRIP1 / RFU, PTTG1IP / Fold change vs veh, PTTG1IP / RFU, CAPN2 / Fold change vs veh, CAPN2 / RFU, MED14 / Fold change vs veh, MED14 / RFU, SNORA58 / Fold change vs veh, SNORA58 / RFU, C1orf63 / Fold change vs veh, C1orf63 / RFU, LRRFIP1 / Fold change vs veh, LRRFIP1 / RFU, NDUFAF7 / Fold change vs veh, NDUFAF7 / RFU, SLC12A2 / Fold change vs veh, SLC12A2 / RFU, IBTK / Fold change vs veh, IBTK / RFU, ESF1 / Fold change vs veh, ESF1 / Fold change vs veh, TMEM50B / RFU, TAOK1 / Fold change vs veh, TAOK1 / RFU, ACBD3 / Fold change vs veh, ACBD3 / RFU, TMA16 / Fold change vs veh, TMA16 / RFU, RWDD3 / Fold change vs veh, RWDD3 / RFU, BCAT1 / Fold change vs veh, BCAT1 / RFU, EDEM3 / Fold change vs veh, EDEM3 / RFU, TMEM33 / Fold change vs veh, TMEM33 / RFU, WDR75 / Fold change vs veh, WDR75 / RFU, AHCTF1 / Fold change vs veh, AHCTF1 / RFU, TFRC / Fold change vs veh, TFRC / RFU, ZDHHC17 / Fold change vs veh, ZDHHC17 / RFU, NOM1 / Fold change vs veh, NOM1 / RFU, ARL8B / Fold change vs veh, ARL8B / RFU, ZBTB11 / Fold change vs veh, ZBTB11 / RFU, TAMM41 / Fold change vs veh, TAMM41 / RFU, KIAA1704 /// LOC100996395 / Fold change vs veh, KIAA1704 /// LOC100996395 / RFU, ING1 / Fold change vs veh, ING1 / RFU, TRMT61B / Fold change vs veh, TRMT61B / RFU, FUBP3 / Fold change vs veh, FUBP3 / RFU, TP53 / Fold change vs veh, TP53 / RFU, TNKS2 / Fold change vs veh, TNKS2 / RFU, ZFP14 / Fold change vs veh, ZFP14 / RFU, ACTR2 / Fold change vs veh, ACTR2 / RFU, PPP3R1 / Fold change vs veh, PPP3R1 / RFU, PIK3R1 / Fold change vs veh, PIK3R1 / RFU, HNRNPA1 / Fold change vs veh, HNRNPA1 / RFU, RNF170 / Fold change vs veh, RNF170 / RFU, ZNF28 / Fold change vs veh, ZNF28 / RFU, RNGTT / Fold change vs veh, RNGTT / RFU, OGT / Fold change vs veh, OGT / RFU, BRD1 / Fold change vs veh, BRD1 / RFU, MARS / Fold change vs veh, MARS / RFU, ZNF655 / Fold change vs veh, ZNF655 / RFU, FAHD1 / Fold change vs veh, FAHD1 / RFU, BDP1 / Fold change vs veh, BDP1 / RFU, LRRCC1 / Fold change vs veh, LRRCC1 / RFU, ARID1A / Fold change vs veh, ARID1A / RFU, ZNF146 / Fold change vs veh, ZNF146 / RFU, ZNF330 / Fold change vs veh, ZNF330 / RFU, GPN3 / Fold change vs veh, GPN3 / RFU, C9orf123 / Fold change vs veh, C9orf123 / RFU, N4BP2L2 / Fold change vs veh, N4BP2L2 / RFU, ARFIP1 / Fold change vs veh, ARFIP1 / RFU, FAM179B / Fold change vs veh, FAM179B / RFU, BCL10 / Fold change vs veh, BCL10 / RFU, UHRF1BP1L / Fold change vs veh, UHRF1BP1L / RFU, BET1 / Fold change vs veh, BET1 / RFU, CNOT2 / Fold change vs veh, CNOT2 / RFU, ZNF268 / Fold change vs veh, ZNF268 / Fold change vs veh, ZNF507 / RFU, DGCR2 / Fold change vs veh, DGCR2 / RFU, WDSUB1 / Fold change vs veh, WDSUB1 / Fold change vs veh, HSP90B1 /// MIR3652 / RFU, ADSS / Fold change vs veh, ADSS / RFU, GK / Fold change vs veh, GK / RFU, ZNF148 / Fold change vs veh, ZNF148 / RFU, TAF9 / Fold change vs veh, TAF9 / RFU, SLC1A5 / Fold change vs veh, SLC1A5 / RFU, SLMO2 / Fold change vs veh, SLMO2 / RFU, ABCC4 / Fold change vs veh, ABCC4 / RFU, LOC101060439 /// RAP1B / Fold change vs veh, LOC101060439 /// RAP1B / RFU, RFX7 / Fold change vs veh, RFX7 / RFU, GTPBP10 / Fold change vs veh, GTPBP10 / RFU, CNEP1R1 / Fold change vs veh, CNEP1R1 / RFU, BIVM-ERCC5 /// ERCC5 / Fold change vs veh, BIVM-ERCC5 /// ERCC5 / RFU, ILF3 / Fold change vs veh, ILF3 / RFU 11762660_at / Fold change /veh 11762660_at / RFU VCAN (11757783_s_at) / Fold change /veh VCAN (11757783_s_at) / RFU DDX43 (11728927_at) / Fold change /veh DDX43 (11728927_at) / RFU KRT8 (11758188_x_at) / Fold change /veh KRT8 (11758188_x_at) / RFU NKD1 (11759106_at) / Fold change /veh NKD1 (11759106_at) / RFU SRD5A1 (11742802_a_at) / Fold change /veh SRD5A1 (11742802_a_at) / RFU TPSAB1 /// TPSB2 (11721975_s_at) / Fold change /veh TPSAB1 /// TPSB2 (11721975_s_at) / RFU GSTM3 (11746129_a_at) / Fold change /veh GSTM3 (11746129_a_at) / RFU IL23R (11737362_x_at) / Fold change /veh IL23R (11737362_x_at) / RFU TMEM51 (11727254_a_at) / Fold change /veh TMEM51 (11727254_a_at) / RFU PIWIL2 (11732686_x_at) / Fold change /veh PIWIL2 (11732686_x_at) / RFU ORM1 (11744905_x_at) / Fold change /veh ORM1 (11744905_x_at) / RFU CCDC152 (11743942_at) / Fold change /veh CCDC152 (11743942_at) / RFU ECM1 (11717891_a_at) / Fold change /veh ECM1 (11717891_a_at) / RFU IL23R (11748794_a_at) / Fold change /veh IL23R (11748794_a_at) / RFU TNFAIP8L3 (11732012_x_at) / Fold change /veh TNFAIP8L3 (11732012_x_at) / RFU MBOAT4 (11741988_at) / Fold change /veh MBOAT4 (11741988_at) / RFU 11764193_at / Fold change /veh 11764193_at / RFU TMEM53 (11763286_at) / Fold change /veh TMEM53 (11763286_at) / RFU MAGEB2 (11727129_at) / Fold change /veh MAGEB2 (11727129_at) / RFU TMEM200A (11744735_a_at) / Fold change /veh TMEM200A (11744735_a_at) / RFU CCDC152 (11751479_a_at) / Fold change /veh CCDC152 (11751479_a_at) / RFU FAM211A (11726209_a_at) / Fold change /veh FAM211A (11726209_a_at) / RFU RGS16 (11746705_a_at) / Fold change /veh RGS16 (11746705_a_at) / RFU VCAN (11755009_s_at) / Fold change /veh VCAN (11755009_s_at) / RFU RHOB (11743442_s_at) / Fold change /veh RHOB (11743442_s_at) / RFU RGS16 (11720943_a_at) / Fold change /veh RGS16 (11720943_a_at) / RFU RGS16 (11720944_at) / Fold change /veh RGS16 (11720944_at) / RFU, VPS4B / Fold change vs veh, VPS4B / RFU, CREB1 / Fold change vs veh, CREB1 / RFU, DNAJC13 / Fold change vs veh, DNAJC13 / RFU, GNAQ / Fold change vs veh, GNAQ / RFU, CDK5R1 / Fold change vs veh, CDK5R1 / RFU, ZRANB3 / Fold change vs veh, ZRANB3 / RFU, CUL4A / Fold change vs veh, CUL4A / RFU, CCNY / Fold change vs veh, CCNY / RFU, UFL1 / Fold change vs veh, UFL1 / RFU, COG3 / Fold change vs veh, COG3 / RFU, DIAPH2 / Fold change vs veh, DIAPH2 / RFU, SKA2 / Fold change vs veh, SKA2 / RFU, AFF3 / Fold change vs veh, AFF3 / RFU, LMF1 / Fold change vs veh, LMF1 / RFU, IPO11 / Fold change vs veh, IPO11 / RFU, DFFB / Fold change vs veh, DFFB / RFU, FOXP1 / Fold change vs veh, FOXP1 / RFU, CARD8 / Fold change vs veh, CARD8 / RFU, STRN3 / Fold change vs veh, STRN3 / RFU, ADK / Fold change vs veh, ADK / RFU, RASSF2 / Fold change vs veh, RASSF2 / RFU, WIPF1 / Fold change vs veh, WIPF1 / RFU, LARP1B / Fold change vs veh, LARP1B / RFU, RASA1 / Fold change vs veh, RASA1 / RFU, RB1 / Fold change vs veh, RB1 / RFU, PPFIA1 / Fold change vs veh, PPFIA1 / RFU, MAT2A / Fold change vs veh, MAT2A / RFU, CCT5 / Fold change vs veh, CCT5 / RFU, WDR92 / Fold change vs veh, WDR92 / RFU, CUX1 / Fold change vs veh, CUX1 / RFU, TTC7A / Fold change vs veh, TTC7A / RFU, TMEM135 / Fold change vs veh, TMEM135 / RFU, DEPTOR / Fold change vs veh, DEPTOR / RFU, CPM / Fold change vs veh, CPM / RFU, DNAJB6 / Fold change vs veh, DNAJB6 / RFU, CACNA2D3 / Fold change vs veh, CACNA2D3 / RFU, DTX4 / Fold change vs veh, DTX4 / RFU, TFCP2 / Fold change vs veh, TFCP2 / RFU, GMCL1 /// GMCL1P1 / Fold change vs veh, GMCL1 /// GMCL1P1 / RFU, AEBP2 / Fold change vs veh, AEBP2 / RFU, SNHG1 /// SNORD22 /// SNORD25 /// SNORD26 /// SNORD27 /// SNORD28 /// SNORD29 /// SNORD31 / Fold change vs veh, SNHG1 /// SNORD22 /// SNORD25 /// SNORD26 /// SNORD27 /// SNORD28 /// SNORD29 /// SNORD31 / Fold change (Aza/veh), C12orf56 (ProbeSet 11735607_a_at) / Fold change (ACY-1035/veh), C12orf56 (ProbeSet 11735607_a_at) / Fold change (Aza/veh), FGFR1OP (ProbeSet 11751329_s_at) / Fold change (ACY-1035/veh), FGFR1OP (ProbeSet 11751329_s_at) / Fold change (Aza/veh), VPS36 (ProbeSet 11739960_a_at) / Fold change (ACY-1035/veh), VPS36 (ProbeSet 11739960_a_at) / RFU SYPL1 (11715823_x_at) / Fold change /veh SYPL1 (11715823_x_at) / RFU IGFBP7 (11715501_s_at) / Fold change /veh IGFBP7 (11715501_s_at) / RFU REEP3 (11722064_at) / Fold change /veh REEP3 (11722064_at) / RFU IGLL1 (11728026_x_at) / Fold change /veh IGLL1 (11728026_x_at): dose or concentration left out as unconfirmed
Settings: MV-4-11 cells, 48 hours

Nc1ncn([C@@H]2O[C@H](CO)[C@@H](O)[C@H]2O)c(=O)n1 [azacitidine]
RFU ECM1 (11717891_a_at): 24.53 RFU
